Laboratory results: patent publication US6649797B2, “Compounds and methods of use to treat infectious diseases” (The Picower Institute for Medical Research, priority 1996, dated 2003)

Columns and labels:
[1] = test system: HIV-1 pre-integration complexes / karyopherin α; assay: Binding of HIV-1 pre-integration complexes to GST-karyopherin α; format: biochemical
Protocol: Cytoplasmic lysates of H9 cells infected with HIV-1RF (upper panel) or HIV-like pseudovirions (bottom panel) were treated for 2 hours with various concentrations of CNI-H0294, and were then mixed with GST-karyopherin α immobilized on glutathione Sepharose beads. HIV-1 DNA or RNA that co-precipitated with karyopherin α was quantified as in A and B.
Cytoplasmic lysates prepared from H9 cells infected with HIV-1RF were treated with 10 μM CNI-H3094 (lane 1) or with 1 μM CNI-H0294 and 10 μM (lane 5), 5 μM (lane 4), 1 μM (lane 3), or no CNI-H3094 (lane 2). The amount of pre-integration complexes available for interaction with karyopherin α was quantified as in FIG. 10.
H9 cells were infected with equal amounts of wild-type HIV-1NLHX or with mutant HIV-1NLHX that lack Vpr (Vpr^−) or carry a mutation that inactivates the MA NLS (MA NLS^−). Infected cells were washed and incubated for 4 h. An aliquot of each sample was used to quantify the total HIV-1 DNA (FIG. 14A) and the rest was used to prepare cytoplasmic extracts. Extracts were incubated with 1 μM CNI-H0294 (FIG. 14B, lanes 2, 4, 6, 8) or were left untreated (lanes 1, 3, 5, 7). The amount of pre-integration complexes available for binding to karyopherin α was determined as in FIG. 10.
H9 cells were infected with HIV-1 or HIV-like pseudovirions (Haffar, et al., 1990, J. Virol., 64:2653-2659) at a multiplicity adjusted according to p24 content (50 ng p24 per 10^6 cells) The MA NLS^− virus contains substitutions of isoleucine residues for lysines in positions 26 and 27 of MA in an NLHX backbone (Westervelt., et al., 1992, J. Virol. 66:2577-2582), thus inactivating the NLS. The Vpr^− virus has the initiating ATG of the vpr gene changed to GTG, thus abolishing expression of this gene. The ΔMA NLS pseudovirions have leucine substituting for lysine in position 28 of MA. This mutation abrogates nuclear translocation of HIV-1 gag RNA in growth-arrested H9 cells infected with pseudovirions. After a 1 hour absorption, excess viruses or pseudovirions were washed away, and cells were incubated for an additional 2-3 hour period at 37° C. prior to analysis.
Cytoplasmic extracts were prepared by lysing cells in cold extraction buffer (10 mM KCl, 10 mM Tris-HCl [pH 7.6], 0.5 mM MgCl2, 1 μg/ml each of leupeptin and aprotinin, and 1 MM phenylmethylsulfonyl fluoride [PMSF]) by 20-30 strokes of a Dounce homogenizer under the control of phase-contrast microscopy. After removal of nuclei, cytoplasmic extract was cleared by centrifugation at 15,000 g for 10 min.
Cytoplasmic extracts prepared from HIV-1-or pseudovirion-infected H9 cells were adjusted to 0.14 M NaCl, 0.1% Tween 20 and precleared with glutathione-Sepharose beads for 30 min. at room temperature. Karyopherin α was expressed as a fusion protein with glutathione S-transferase (GST) which can bind glutathione beads in solution. GST-karyopherin α immobilized on Sepharose beads was then added (about 50 μg of immobilized karyopherin α per extract from 108 infected cells) and the mixture was incubated at room temperature for another 30 min. Beads were then pelleted by centrifugation and washed 3 times with PBS supplemented with 0.1% Tween 20, 1 μg/ml each of leupeptin and aprotinin, and 1 mM PMSF. HIV-1 DNA was isolated from the beads by SDS-proteinase K treatment with subsequent phenol-chloroform extraction, while pseudovirion gag RNA was isolated by RNazol (Biotecx Laboratories Inc.).

[2] = test system: HIV-1ADA; assay: Anti-HIV activity in primary human monocytes, day 9 (Table IX, FIG. 12C); format: cell-based
Protocol: Monocytes infected with HIV-1ADA were cultured in the presence of CNI-H0294 and CNI-H3094 in various concentrations. Nine days after infection, RT activity in culture supernatants was quantified. The results are presented as percent of total RT activity in untreated cultures (control). Three independent samples were assayed for each drug concentration, and the standard deviation was less than 15%.
[…] A 50% inhibitory concentration (IC50) was determined at day 9 after infection.

[3] = biological target: T1, recombinant RT (p51/p66 heterodimer) (Human immunodeficiency virus type 1 group M subtype B, UniProt P04585); assay: Binding of [14C]-CNI-H0294 to recombinant RT in solution (immunoprecipitation); design: species or system HIV-1; settings: 0.2 μM RT, 3.3 μM labeled CNI-H0294, increasing unlabeled compound
T1 construct: recombinant MA or RT (a p51/p66 heterodimer)
Protocol: Twenty nmol of [^14C]-CNI-HO294 were mixed with 0.28 nmol of recombinant MA or RT (a p51/p66 heterodimer) in 40 μl of binding buffer. Samples were incubated for 2 h at 37° C. in the presence or absence of 200 nmol of unlabeled CNI-H0294. MA and RT proteins were immunoprecipitated using protein G agarose and sheep polyclonal anti-MA (αMA) or rabbit anti-RT (αRT) sera, respectively. Pre-immune sera (PI) was used as control. Bound material was eluted from protein G using 0.1 M glycine buffer [pH 2.8] and the radioactivity in the eluate was quantified in a scintillation counter.
Recombinant RT (0.2 μM) was incubated with 3.3 μM of [^14C ]-labeled CNI-H0294 and increasing concentrations of unlabeled (cold) CNI-3094. The amount of [^14C]-CNI-H0294 that bound to RT was measured as in FIG. 11.
0.28 nanomoles of recombinant MA or RT [p66/p51 ] dimer were mixed with 20 nmol of [^14C] CNI-HO294 (specific activity 5×10^4 cpm/nmol) and incubated 2 hr at room temperature in 40 μl of binding buffer (PBS supplemented with 1% BSA, 0.1% Tween 20, 1 μg/ml leupeptin, 1 μg/ml aprotinin, 1 mM PMSF). Sheep anti-MA or rabbit anti-RT sera (both obtained from NIH AIDS Research and Reference Reagent Program) or pre-immune control sera were then added (at 1:100 dilution) and incubation continued for another 1 hr at room temperature. Immune complexes were precipitated with protein G-agarose, washed, and then eluted with 0.1 M glycine, pH 2.8. Radioactivity of the eluate was measured in a scintillation counter.

Question: `COC(=O)c1cc(Nc2cc(C)nc(N)n2)cc(C(=O)OC)c1` [CNI-H3094] was tested. Which “inhibition of binding of HIV-1 pre-integration complexes to karyopherin α” value ([1]; 10 μM alone (FIG. 12B, lane 1)) did it give?
Answer: The value was “did not inhibit”.

Question: What about the “effect on CNI-H0294 inhibition of pre-integration complex binding to karyopherin α” value ([1]; 5-fold excess over 1 μM CNI-H0294) of the same compound?
Answer: Its value is “reduced significantly the inhibitory effect of CNI-H0294”.

Question: What about the “effect on CNI-H0294 inhibition of pre-integration complex binding to karyopherin α” value ([1]; 10-fold excess over 1 μM CNI-H0294) of the same compound?
Answer: The value was “completely eliminated the inhibitory effect”.

Question: And the IC50 ([2]; Human immunodeficiency virus 1, Monocyte, 216 h, day 9 after infection, >10 μM = 50% inhibition not achieved at maximal concentration, read-out: IC50)?
Answer: The IC50 was over 10 µM.

Question: What about the “effect on anti-HIV activity of CNI-H0294 in monocyte cultures” value ([2]; RT activity nine days after infection (FIG. 12C)) of the same compound?
Answer: The value was “eliminated the inhibitory effect of CNI-H0294 on HIV-1 replication”.

Question: And the “competition with [14C]-labeled CNI-H0294 for binding to RT” value [3]?
Answer: Its value is “inhibits binding of [^14C]-labeled CNI-H0294 to RT in a dose-dependent manner”.
